Source: patent publication US20170202818A1, “METHODS AND COMPOSITIONS TO MODIFY GSK-3 ACTIVITY” (Ohio University, priority 2014, published 2017)
Like-named read-outs stand apart in the source and are kept apart here. Blank lines part the entries; values can stand above or below the compound they belong to.

Legend:
[1] = tested on: RAW 264.7 murine macrophages; test: western blotting of β-catenin and GSK-3 in RAW 264.7 macrophages; format: cell-based; conditions: for expression of β-catenin protein: RAW 264.7, 0.5-25 μM, 5 hours; for expression of GSK-3: RAW 264.7, higher concentrations, e.g., 10 μM and 25 μM
Procedure: (§1) To test the ability of COB-187 and COB-152 to increase β-catenin levels, RAW 264.7 macrophages and PMA differentiated THP-1 cells were treated with COB-152 or COB 187 at different concentrations or 0.1% (v/v) DMSO solvent for 5 hours. Following treatment, protein was extracted and probed for β-catenin and total GSK-3 via western blotting.
(§2) More specifically, RAW 264.7 cells and PMA differentiated THP-1 cells were treated with varying concentrations of COB-187 or COB-152 dissolved in culture media containing 0.1% (v/v) dimethylsulfoxide (i.e., DMSO) solvent or with 0.1% (v/v) DMSO alone for 5 or 24 hours. After incubation, […] protein was extracted from the cells and quantified. More specifically, culture supernatant was collected and store at −80° C. until further use. The cells were lysed in 10 mM Tris HCl at pH 7.5, 150 mM NaCl, and 1% nonyl phenoxypolyethoxylethanol-40, containing a cocktail of protease inhibitors (Roche, Mannheim, Germany). Insoluble material was pelleted and the supernatant containing total protein as well as the culture supernatant was quantified using a Micro BCA protein kit. […] of protein was then resolved onto a denaturing gel, transferred to a nitrocellulose membrane, and immunoblotted with antibodies against GSK-3 and β-catenin. Signals were detected using the Li-Cor Odyssey Infrared Imaging System (Lincoln, Nebr.). Membranes were stripped and reprobed with primary antibody for β-actin as a loading control. All experiments were performed at least thrice in both RAW 264.7 and PMA differentiated THP-1 cells, and in duplicates.

[2] = tested on: PMA differentiated THP-1 cells; test: western blotting of β-catenin and GSK-3 in PMA differentiated THP-1 cells; format: cell-based, human; conditions: for expression of β-catenin protein: PMA differentiated THP-1, 0.5-25 μM, 5 hours; for expression of GSK-3: PMA differentiated THP-1, higher concentrations, e.g., 10 μM and 25 μM
Procedure: RAW 264.7 cells were cultured in RPMI 1640 medium supplemented with 10% FBS and 0.5% penicillin-streptomycin stabilized solution. THP-1 cells were cultured and differentiated into macrophages using phorbol 12-myristate 13-acetate (i.e., PMA). More specifically, THP-1 cells were cultured in RPMI-1640 10% FBS supplemented with 0.05 mM 2-mercaptoethanol. For differentiation to a macrophage phenotype, THP-1 cells were stimulated with PMA (50 ng/mL) for 24 hours. Differentiated THP-1 cells were washed with fresh media twice before incubation for 24 more hours at 37° C., 5% CO2 in a humidified incubator. The monolayer was then treated with ox-LDL or native LDL (both at either 50 or 100 μg/mL) and LPS (10 ng/mL) for 4 hours. Undifferentiated THP-1 cells were cultured and treated under similar conditions were used as a control.
as §1, §2

[3] = tested on: RAW 264.7 murine macrophages; test: quantitative RT-PCR of β-catenin mRNA in RAW 264.7 cells; format: cell-based; conditions: RAW 264.7, 4, 20 or 40 μM, 5 hours
Procedure: RAW 264.7 cells were treated with varying concentrations of COB-187, COB-152 or 0.1% (v/v) DMSO solvent alone for 5 or 24 hours. Following treatment, RNA was extracted from the cells and reverse transcribed. More specifically, total RNA was isolated using RNeasy plus mini kit according to the manufacturer's protocol and quantified using a Nanodrop 2000C Spectrophotometer. First-strand cDNA was synthesized from total RNA using cDNA Reverse Transcription Kit according to the manufacturer's protocol. Quantitative RT-PCR was performed using Taqman Gene Expression Assay (Life Technologies, Waltham, Mass.) and mouse primers for GAPDH and β-catenin. Relative gene expression was determined by normalizing with GAPDH using the comparative Ct method. All experiments were performed at least thrice in duplicates.

[4] = tested on: LPS induced RAW macrophages; test: LPS-induced IL-6 mRNA in RAW 264.7 macrophages; format: cell-based; conditions: LPS stimulated murine macrophages, 0.1, 1 or 10 μM
Procedure: RAW 264.7 were stimulated with either LPS (10 ng/mL) alone, or in combination with COB-152, COB-187 or 0.1% DMSO solvent for 5 hours. Following incubation, RNA was extracted from the cells. Quantitative RT-PCR was used to quantify expression of mRNA.

[5] = tested on: PMA differentiated THP-1 human macrophages stimulated with Aβ(1-42) peptides; test: Aβ(1-42)-induced inflammatory cytokines in human macrophages (RT-PCR, ELISA); format: cell-based; conditions: Aβ(1-42) 10 μM, 5 hours; for concentration at which IL-1β protein production was decreased: ELISA; for IFN-β mRNA expression / IL-1α mRNA expression: dose-dependent
Procedure: (§3) THP-1 cells were differentiated using PMA (50 ng/mL) as previously described and stimulated with either LPS (10 ng/mL) or […] human Aβ(1-42) peptides alone, or in combination with COB-152, COB-187 or 0.1% DMSO solvent for 5 hours. Following incubation, the supernatant was collected and stored at −80° C. until assayed for IL-6, TNF-α, and IL-1β protein by ELISA, whereas RNA extracted from the cells was reverse transcribed and subjected to quantitative RT-PCR for quantification of IL-6, TNF-α, IL-1α, IL-1, and IFN-β mRNA. All experiments were performed at least thrice and in duplicates.
(§4) RNA extracted from differentiated THP-1 cells treated as previously described was reverse transcribed to cDNA and subjected to quantitative RT-PCR. Relative IL-6, TNF-α, IL-1α, IL-1, and IFN-β gene expression was determined by normalizing with Hprt1 using the comparative Ct method. Commercially available cytokine ELISA kits (BD Biosciences, Burlington, N.C.) were used to quantify the levels of secreted IL-6, TNF-α, and IL-1 protein in the supernatant obtained from differentiated THP-1 cells treated with either LPS (10 ng/mL) or 10 μM human Aβ(1-42) peptides alone, or in combination with COB-152, COB-187 or 0.1% DMSO solvent. The ELISA was performed according to the manufacturer's protocol. The supernatant was diluted with the assay diluent at different ratios as shown in the TABLE 4 below for IL-6, TNF-α, and IL-1β. All samples were tested in duplicates and the results were expressed as Mean±SD of the cytokine concentration (pg/mL). All results presented were corrected for dilution factor.

[6] = tested on: PMA differentiated THP-1 human macrophages stimulated with LPS; test: LPS-induced inflammatory cytokines in human macrophages (RT-PCR, ELISA); format: cell-based; conditions: LPS 10 ng/mL, 5 hours
Procedure: as §3, §4

non-GSK-3 kinases = test: kinase screen, non-GSK-3 kinases; conditions: COB-152 at 2 μM; COB-187 at 1 μM; FIG. 3
GSK-3α and GSK-3β = test: kinase screen, GSK-3; conditions: COB-152 at 2 μM; COB-187 at 1 μM; FIG. 3
GSK-3α = GSK-3α (Homo sapiens, UniProt P49840); test: fluorescence-based molecular assay of GSK-3α activity; conditions: 60 minutes at room temperature, Ser/Thr substrate and ATP
From the text: (§5) Subsequently, the solution was developed and the fluorescence was read to infer the activity of the protein.

GSK-3β = GSK-3β (Homo sapiens, UniProt P49841); test: fluorescence-based molecular assay of GSK-3β activity; conditions: 60 minutes at room temperature, Ser/Thr substrate and ATP
From the text: as §5

[7] = cited from earlier work
[8] = Alzheimer's disease, Phase IIb; cited from earlier work

GSK-3α, sequence (P49840 whole entry, species assumed): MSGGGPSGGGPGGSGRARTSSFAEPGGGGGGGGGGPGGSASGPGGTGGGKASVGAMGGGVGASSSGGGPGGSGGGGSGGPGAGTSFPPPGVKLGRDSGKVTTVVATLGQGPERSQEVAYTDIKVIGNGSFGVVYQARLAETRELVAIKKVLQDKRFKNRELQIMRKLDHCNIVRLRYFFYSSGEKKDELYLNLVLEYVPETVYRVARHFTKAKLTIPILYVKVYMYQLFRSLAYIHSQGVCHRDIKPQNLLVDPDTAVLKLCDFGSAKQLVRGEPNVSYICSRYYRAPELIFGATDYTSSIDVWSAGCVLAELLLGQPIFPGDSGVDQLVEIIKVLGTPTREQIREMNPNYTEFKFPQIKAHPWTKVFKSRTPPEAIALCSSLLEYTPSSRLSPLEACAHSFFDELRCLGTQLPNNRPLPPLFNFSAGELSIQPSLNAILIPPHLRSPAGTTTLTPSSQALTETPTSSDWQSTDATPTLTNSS
GSK-3β, sequence (P49841 whole entry, species assumed): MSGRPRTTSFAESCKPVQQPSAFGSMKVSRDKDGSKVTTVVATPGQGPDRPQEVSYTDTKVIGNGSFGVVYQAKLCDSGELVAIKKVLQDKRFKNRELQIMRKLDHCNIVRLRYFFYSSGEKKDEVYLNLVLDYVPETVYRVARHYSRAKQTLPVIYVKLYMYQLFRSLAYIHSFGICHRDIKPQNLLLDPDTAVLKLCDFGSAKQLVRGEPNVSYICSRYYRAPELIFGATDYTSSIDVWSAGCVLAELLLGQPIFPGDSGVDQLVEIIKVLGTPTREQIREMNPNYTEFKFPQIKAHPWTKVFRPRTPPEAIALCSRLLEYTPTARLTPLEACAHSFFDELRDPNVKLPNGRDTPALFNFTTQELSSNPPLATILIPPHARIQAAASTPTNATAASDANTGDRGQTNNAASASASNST

Compound: OC1(c2ccccc2)CSC(=S)N1Cc1cccnc1 (stereo not shown) [COB-152]
expression of β-catenin protein [1]: increased in a dose-dependent manner | expression of GSK-3 [1]: may also be affected | expression of β-catenin protein [2]: increased expression | expression of GSK-3 [2]: may also be affected | expression of β-catenin mRNA [3]: did not alter | IL-6 mRNA production [4]: dose dependently inhibited | IL-6 production (mRNA and protein) [5]: dose-dependent decrease | TNF-α production (mRNA and protein) [5]: dose-dependent decrease | concentration at which IL-1β protein production was decreased [5]: ≥ 25 µM | IFN-β mRNA expression [5]: inhibited | IL-1α mRNA expression [5]: inhibited | IL-1α mRNA expression [6]: inhibited | IL-6 production (mRNA and protein) [6]: dose-dependent decrease | TNF-α production (mRNA and protein) [6]: dose-dependent decrease | concentration at which IL-1β protein production was decreased ([6]; ELISA): ≥ 50 µM | effect on non-GSK-3 kinases, such as the cyclin dependent protein kinases (non-GSK-3 kinases): little effect

activity of GSK-3α/β in kinase screen (GSK-3α and GSK-3β): inhibit | effect on non-GSK-3 kinases, such as the cyclin dependent protein kinases (non-GSK-3 kinases): little effect | IC50, inhibition of GSK-3α activity (GSK-3α): nanomolar range | IC50, inhibition of GSK-3β activity (GSK-3β): nanomolar range
Compound: OC1(c2ccccc2)CSC(=S)N1Cc1ccncc1 (stereo not shown) [COB-187]
expression of β-catenin protein [1]: increased in a dose-dependent manner | expression of GSK-3 [1]: may also be affected | expression of β-catenin protein [2]: increased expression | expression of GSK-3 [2]: may also be affected | expression of β-catenin mRNA [3]: did not alter | IL-6 production (mRNA and protein) [5]: dose-dependent decrease | TNF-α production (mRNA and protein) [5]: dose-dependent decrease | concentration at which IL-1β protein production was decreased [5]: ≥ 10 µM | IFN-β mRNA expression [5]: inhibited | IL-1α mRNA expression [5]: inhibited | IL-1α mRNA expression [6]: inhibited | IL-6 production (mRNA and protein) [6]: dose-dependent decrease | TNF-α production (mRNA and protein) [6]: dose-dependent decrease | IL-1β protein production ([6]; ELISA): dose-dependent decrease

Compound: O=c1sn(-c2cccc3ccccc23)c(=O)n1Cc1ccccc1 [tideglusib]
progression of global cerebral atrophy compared to placebo ([7]; analysis of a sub-set of patients): reduced progression of global cerebral atrophy | primary endpoint ([7]; progressive supranuclear palsy, phase II): did not meet is primary endpoint | primary endpoint [8]: primary endpoint was not achieved
